EP1322622B1, “NEW N, N'-DISUBSTITUTED BENZIMIDAZOLONE DERIVATIVES WITH AFFINITY AT THE SEROTONIN AND DOPAMINE RECEPTORS” (Sprout Pharmaceuticals, Inc., priority 2000, dated 2002)

What was measured:
CHO/5-HT1A cells = target: T1, CHO/5-HT1A cells (Homo sapiens, UniProt P08908); experiment: 5-HT1A Functional assay (cAMP); type: cell-based; conditions: 10 µM compound; % inhibition of the cAMP accumulation induced by 10 µM FSK; read-out: 5-HT1A cAMP % inhib.
T1 construct: expressed in transfected cells; host or cells: CHO/5-HT1A cells
T1 sequence (P08908 1-422): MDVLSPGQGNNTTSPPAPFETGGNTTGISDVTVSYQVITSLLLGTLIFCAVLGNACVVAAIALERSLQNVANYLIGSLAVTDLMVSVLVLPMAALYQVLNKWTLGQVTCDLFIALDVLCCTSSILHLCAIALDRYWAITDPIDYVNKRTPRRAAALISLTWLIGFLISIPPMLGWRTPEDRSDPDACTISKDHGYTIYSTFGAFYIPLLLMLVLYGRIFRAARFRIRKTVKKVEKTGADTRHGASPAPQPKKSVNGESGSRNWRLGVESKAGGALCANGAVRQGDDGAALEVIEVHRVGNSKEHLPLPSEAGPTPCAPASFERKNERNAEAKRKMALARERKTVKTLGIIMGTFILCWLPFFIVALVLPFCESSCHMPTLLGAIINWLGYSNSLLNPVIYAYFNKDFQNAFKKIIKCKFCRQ
Method in brief: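 CHO cells expressing human 5-HT1A, pretreated 15 min at 37 °C with 500 µM IBMX in serum-free medium, then exposed 15 min at 37 °C to 10 µM forskolin plus 10 µM test compound (1 µM 5-HT as positive standard), in duplicate. Lysed cells assayed for cAMP by enzyme immunoassay.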

5-HT1A human receptors = target: T2, 5-HT1A human receptors (Homo sapiens, UniProt P08908); experiment: 5-HT1A Radioligand Receptor Binding Assay ([3H]-8-OH-DPAT, CHO cell membranes); conditions: for IC50: [3H]-8-OH-DPAT displacement, CHO membranes, read-out: 5-HT1A receptor binding IC50; for inhibition at 0.1 µM: compound at 10^-7 M, singlicate, [3H]-8-OH-DPAT 0.6-0.7 nM, read-out: 5-HT1A receptor binding assay % inhib. (10^-7 M)
T2 construct: expressed in transfected cells; host or cells: CHO cells
T2 sequence (P08908 1-422): T1 sequence (P08908 1-422)

5-HT2A = target: T3, 5-HT2A (Rattus norvegicus, UniProt P14842); experiment: 5HT2A Radioligand Receptor Binding Assay ([3H]-Ketanserin, cerebral frontal cortex membranes); set-up: species or system Rats; conditions: 0.5 nM [3H]-Ketanserin
T3 construct: Cerebral frontal cortex was homogenized in 10 volumes of ice cold 0.32 M sucrose; from tissue; host or cells: rat cerebral frontal cortex membranes
Method: Rats (male Sprague-Dawley, 200-250 g) were used. Cerebral frontal cortex was homogenized in 10 volumes of ice cold 0.32 M sucrose in 5 mM Tris-HCl ([…]) buffer. After centrifugation of the homogenate (1,000 x g for 10 min) the supernatant was then recentrifuged at 48,000x g for 15 min.The resulting pellet was gently homogenized in an equal volume of 50mM Tris-HCl buffer (pH 7.4) and incubated at 37° C for 10 minutes. Membranes were then collected by centrifugation as above described and finally resuspended in 10 volumes of 50mM Tris-HCl buffer (pH 7.4).
For displacement experiments membranes (980 µl) were diluted in 50 mM Tris-HCl buffer (pH 7.4) to a final concentration of 1:100 (w/v); the tissue suspension was then incubated at 37 °C for 10 min in a final volume of 1 ml in the presence of 0.5 nM [^3H]-Ketanserin. Non specific binding was determined by incubating similar samples with unlabelled methysergide (100 µM). […] The filters were washed three times with 2 ml ice-cold Tris-HCl buffer and placed in polyethylene vials, then 4 ml of Filter Count scintillation cocktail (Packard) were added. The radioactivity present was counted by liquid scintillation spectrometry.
The affinity values (IC50) for the compounds were obtained by a non linear least squares regression analysis on the basis of a one binding site model.

D4 human receptors = target: T4, D4 human receptors (Homo sapiens, UniProt P21917); experiment: D4 Radioligand Receptor Binding Assay ([3H] YM-09151-2, CHO cell membranes); conditions: compound at 10^-7 M, singlicate; [3H] YM-09151-2 0.15-0.25 nM; read-out: D4 receptor binding assay % inhib. (10^-7 M)
T4 construct: expressed in transfected cells; host or cells: CHO cells
T4 sequence (P21917 1-419): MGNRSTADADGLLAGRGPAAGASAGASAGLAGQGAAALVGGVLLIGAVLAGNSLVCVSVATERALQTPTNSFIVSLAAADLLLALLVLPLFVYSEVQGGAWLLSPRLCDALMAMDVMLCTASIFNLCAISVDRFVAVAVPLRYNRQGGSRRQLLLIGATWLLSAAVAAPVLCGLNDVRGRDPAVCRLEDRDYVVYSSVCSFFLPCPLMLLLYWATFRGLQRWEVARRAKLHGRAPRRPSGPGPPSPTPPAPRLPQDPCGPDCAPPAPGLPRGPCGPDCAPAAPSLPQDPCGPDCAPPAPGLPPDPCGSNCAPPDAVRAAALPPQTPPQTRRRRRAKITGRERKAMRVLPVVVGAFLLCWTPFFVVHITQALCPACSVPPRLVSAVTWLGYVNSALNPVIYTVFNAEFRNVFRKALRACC
Method: Membranes from CHO cells, expressing D4 human receptors were suspended in incubation buffer.
Binding assays were performed in MultiProbe 204 pipetting system (Packard), according to a predetermined mapping, consistent with the software Screen. The compounds were tested in singlicate at one concentration (10^-7 M) in a total volume of 1000 µl (980 µl of diluted membranes, 10 µl DMSO or unlabelled ligand and 10 µl of [^3H] YM-09151-2 (0.15-0.25 nM). After incubation for 120 min at 27 °C, the reaction was stopped by rapid filtration through Tomtec cell Harvester (48 wells) using Filtermat B (presoaked in 0.1% PEI) filters. Filters were washed with ice-cold 50 mM Tris-HCl (pH 7.4) buffer (9 x 700 µl), dryed, covered with MeltiLex B/HS (Wallac) scintillator sheets and heated in oven at 80-90 °C for about 10 min, transferred into plastic sample bags (Wallac), sealed and put into 1024 Beta Plate scintillation counter (Wallac). Non specific binding was determined in the presence of clozapine dissolved in DMSO to a final concentration of 10^-5 M.
The specific radioligand binding to the receptor was defined by the difference between total binding and non specific binding, determined in the presence of an excess of unlabelled ligand. Results were expressed as percentage of control specific binding obtained in the presence of the compounds.

T3 sequence (P14842 whole entry): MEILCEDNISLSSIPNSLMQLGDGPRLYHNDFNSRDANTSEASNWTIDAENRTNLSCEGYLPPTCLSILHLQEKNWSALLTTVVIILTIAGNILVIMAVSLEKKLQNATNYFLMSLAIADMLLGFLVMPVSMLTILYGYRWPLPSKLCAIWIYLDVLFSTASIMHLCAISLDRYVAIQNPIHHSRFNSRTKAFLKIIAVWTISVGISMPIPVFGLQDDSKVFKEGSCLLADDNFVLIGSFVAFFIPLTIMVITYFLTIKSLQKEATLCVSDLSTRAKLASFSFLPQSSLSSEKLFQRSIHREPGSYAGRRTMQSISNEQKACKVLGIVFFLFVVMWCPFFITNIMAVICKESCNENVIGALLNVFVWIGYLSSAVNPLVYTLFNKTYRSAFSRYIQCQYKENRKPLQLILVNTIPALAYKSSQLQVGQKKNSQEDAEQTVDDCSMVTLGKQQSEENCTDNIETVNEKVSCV

| Compound | inhibition at 10 µM (CHO/5-HT1A cells) [%] | IC50 (5-HT1A human receptors) [nM] | inhibition at 0.1 µM (5-HT1A human receptors) [%] | IC50 (5-HT2A) [nM] | inhibition at 0.1 µM (D4 human receptors) [%] |
| --- | --- | --- | --- | --- | --- |
| O=c1n(CCO)c2ccccc2n1CCN1CCN(c2cccc(Cl)c2)CC1 [compound 183] | 66 | 7.2 | 96 | 27 | 62 |
| Cc1cccc(N2CCN(CCn3c(=O)n(CCNS(C)(=O)=O)c4ccccc43)CC2)c1C [compound 254] | 66 | 7.4 | 85 | 65 | 34 |
